Measurements published in article PMC7445967, “The Potential of Atractylodin-Loaded PLGA Nanoparticles as Chemotherapeutic for Cholangiocarcinoma” (Asian Pacific Journal of Cancer Prevention : APJCP, 2020).
Converted amounts (≈) assume the structure as drawn. Read-outs that look alike come from different tables or passages of the source.

Columns and labels:
[1] = test system: CL-6 cholangiocarcinoma cell line; assay: MTT cytotoxicity assay, CL-6; settings: for Cell viability: highest concentration (atractylodin 125 µg/mL, ALNPs-1 6,000 µg/mL), range
Method: (§1) Human cholangiocarcinoma (CCA) cell lines, CL-6 and HuCC-T1, and normal fibroblast cell line, OUMS-36T-1F, were used for cytotoxicity assay. CL-6 and HuCC-T1 cell lines were cultured in RPMI medium and OUMS-36T-1F cell line was cultured in DMEM medium. Both culture media were prepared as complete medium supplemented with 10% (v/v) FBS and 1% antibiotic-antimycotic solution (100 IU/mL). All cell cultures were maintained at 37°C under 5% CO2 atmosphere and 95% humidity ([…] 150i, Thermo scientific, MA, USA).
(§2) For cytotoxicity assay, the CCA and normal cell lines were exposed to various concentrations of ALNPs-1 (47-6,000 µg/mL, 100 µL each), blank NPs-1 (47-6,000 µg/mL, 100 µL each), atractylodin (1-125 µg/mL), 5-FU (positive control, 1-125 µg/mL), or serum-free medium (negative control) in a 96-well plate. Briefly, 8,000 cells (in 100 µL complete medium) were seeded into each well and pre-incubated at 37°C under 5% CO2 for 24 h. Viability of each cell following exposure to ALNPs-1, blank NPs-1, atractylodin, and 5-FU was determined by MTT assay at 24, 48, and 72 h of exposure (Chittasupho et al., 2017). Absorbance of cell suspension was measured at 550 nm using UV Absorbance Reader (Vario skan flash, Thermo Fisher scientific, MA, USA). Cell viability was calculated using the Equation (4):
(§3) Cell viability %=Absorbance of cell treated with sample/absorbance of negative control cells×100
(§4) IC50 (concentration that inhibits cell growth by 50%) of each compound in each cell line was determined using Graphpad Prism version 7.04 (GraphPad Software, CA, USA). Selectivity index (SI) was determined from the ratio of IC50 of ALNPs-1, atractylodin, or 5-FU in normal cell and CCA cell.

[2] = test system: HuCC-T1 cholangiocarcinoma cell line; assay: MTT cytotoxicity assay, HuCC-T1; settings: for Cell viability: highest concentration (atractylodin 125 µg/mL, ALNPs-1 6,000 µg/mL), range
Method: as §1, §2, §3, §4

[3] = test system: OUMS-36T-1F normal fibroblast cell line; assay: MTT cytotoxicity assay, OUMS-36T-1F; settings: for Cell viability: highest concentration (atractylodin 125 µg/mL, ALNPs-1 6,000 µg/mL), range
Method: as §1, §2, §3, §4

[4] = cited from earlier work
[5] = ratio of IC50 in normal cell (OUMS-36T-1F) and CL-6, 24 hours
[6] = ratio of IC50 in normal cell (OUMS-36T-1F) and CL-6, 48 hours
[7] = ratio of IC50 in normal cell (OUMS-36T-1F) and CL-6, 72 hours
[8] = ratio of IC50 in normal cell (OUMS-36T-1F) and HuCC-T1, 24 hours
[9] = ratio of IC50 in normal cell (OUMS-36T-1F) and HuCC-T1, 48 hours
[10] = ratio of IC50 in normal cell (OUMS-36T-1F) and HuCC-T1, 72 hours

O=c1[nH]cc(F)c(=O)[nH]1 [5-FU, 5-fluorouracil]
IC50 ([1]; Homo sapiens, 24 h): 77.4 µg/mL (≈ 595 µM) | IC50 ([1]; Homo sapiens, 48 h): 38.8 µg/mL (≈ 299 µM) | IC50 ([1]; Homo sapiens, 72 h): 3.46 µg/mL (≈ 26.6 µM) | Selectivity index (SI) [1, 5]: 1.71 | Selectivity index (SI) [1, 6]: 1.28 | Selectivity index (SI) [1, 7]: 8.90 | IC50 ([2]; Homo sapiens, HuCCT-1, 24 h): 38.9 µg/mL (≈ 299 µM) | IC50 ([2]; Homo sapiens, HuCCT-1, 48 h): 25.9 µg/mL (≈ 199 µM) | IC50 ([2]; Homo sapiens, HuCCT-1, 72 h): 8.2 µg/mL (≈ 63 µM) | Selectivity index (SI) [2, 8]: 3.41 | Selectivity index (SI) [2, 9]: 1.92 | Selectivity index (SI) [2, 10]: 3.75 | IC50 ([3]; Homo sapiens, Fibroblast, 24 h): 133 µg/mL (≈ 1020 µM) | IC50 ([3]; Homo sapiens, Fibroblast, 48 h): 49.8 µg/mL (≈ 383 µM) | IC50 ([3]; Homo sapiens, Fibroblast, 72 h): 30.8 µg/mL (≈ 237 µM)

C/C=C/C#CC#C/C=C/c1ccco1 [Atractylodin]
IC50 ([1]; CL-6, 24 h exposure, MTT): 56.36 µg/mL (≈ 309 µM) | Cell viability ([1]; CL-6, 24 hours): 24.38-33.56% | IC50 ([1]; CL-6, 48 h exposure, MTT): 37.66 µg/mL (≈ 207 µM) | Cell viability ([1]; CL-6, 48 hours): 9.71-13.89% | IC50 ([1]; CL-6, 72 h exposure, MTT): 52.02 µg/mL (≈ 285 µM) | Cell viability ([1]; CL-6, 72 hours): 9.12-10.27% | Selectivity index (SI) [1, 5]: 1.50 | Selectivity index (SI) [1, 6]: 1.54 | Selectivity index (SI) [1, 7]: 1.33 | IC50 ([2]; HuCC-T1, 24 h exposure, MTT): 53.66 µg/mL (≈ 294 µM) | Cell viability ([2]; HuCC-T1, 24 hours): 23.72-30.39% | IC50 ([2]; HuCC-T1, 48 h exposure, MTT): 59.74 µg/mL (≈ 328 µM) | Cell viability ([2]; HuCC-T1, 48 hours): 16.18-17.18% | IC50 ([2]; HuCC-T1, 72 h exposure, MTT): 76.15 µg/mL (≈ 418 µM) | Cell viability ([2]; HuCC-T1, 72 hours): 16.43-20.57% | Selectivity index (SI) [2, 8]: 1.57 | Selectivity index (SI) [2, 9]: 0.97 | Selectivity index (SI) [2, 10]: 0.91 | Concentrations producing cytotoxic effect against normal cells ([3]; OUMS-36-1F normal cells): 62.5 to 125 µg/mL | IC50 ([3]; OUMS-36T-1F, 24 h exposure, MTT): 84.33 µg/mL (≈ 463 µM) | Cell viability ([3]; OUMS-36T-1F, 24 hours): 39.61-41.50% | IC50 ([3]; OUMS-36T-1F, 48 h exposure, MTT): 58.16 µg/mL (≈ 319 µM) | Cell viability ([3]; OUMS-36T-1F, 48 hours): 14.88-15.37% | IC50 ([3]; OUMS-36T-1F, 72 h exposure, MTT): 69.03 µg/mL (≈ 379 µM) | Cell viability ([3]; OUMS-36T-1F, 72 hours): 6.61-7.92% | Solubility in water ([4]; free atractylodin, ref TGSC Information System, 2019): 7.541 µg/mL (≈ 41.4 µM) | Solubility in water ([4]; soluble in organic solvents such as ethyl acetate, DMSO, acetone, ref ChemFaces, 2018): insoluble in water
